According to US20260242350A1, “POLYCYCLIC THYROID HORMONE BETA RECEPTOR AGONIST AND USE THEREOF” (CASCADE PHARMACEUTICALS, INC., priority 2023, published 2026):

Assays:
[1] = target: T1, THRβ (pGAL4-THRβ-LBD) (Homo sapiens, UniProt P10828); test: Reporter gene (Dual-Glo luciferase) agonist activity assay in HEK293T cells, THRβ; assay type: cell-based; conditions: ratio of EC50 THRα/THRβ
T1 construct: expressed in transfected cells; host or cells: HEK293T
T1 sequence (P10828 217-461): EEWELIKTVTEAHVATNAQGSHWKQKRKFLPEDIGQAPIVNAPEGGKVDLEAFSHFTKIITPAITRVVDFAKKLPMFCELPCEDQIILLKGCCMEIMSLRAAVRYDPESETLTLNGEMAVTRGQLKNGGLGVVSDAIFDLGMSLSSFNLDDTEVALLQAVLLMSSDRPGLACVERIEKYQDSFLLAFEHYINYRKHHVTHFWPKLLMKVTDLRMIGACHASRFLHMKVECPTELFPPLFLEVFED
Source text: Experimental Example 2: Detection of Agonist Activities of Compounds Against THRα and THRβ Based on Reporter Gene Activity Assay Method
1.1 Construction and Preparation of Plasmids pGAL4-THR-LBD and pG5-Luc
The pGAL4-THRα-LBD and pGAL4-THRβ-LBD plasmids used in the reporter gene assay system were constructed by a conventional molecular cloning method comprising the following main steps: the cDNA sequences of THRα (NM_003250) and THRβ(NM_000461) corresponding to the amino acid sequences of THRα (163-407AA) and THRβ(217-461AA) were inserted into the BamHI and NotI enzyme digestion sites of the pGAL4 vector by the PCR technique respectively to obtain the pGAL4-THRα-LBD and pGAL4-THRβ-LBD plasmids; the pG5-Luc (#E249A) and pRL-TK (#E2241) plasmids were purchased from Promega; the plasmids were transfected into the E. coli DH5a by the CaCl2 method, and after further culture and amplification, the plasmids were purified by Plasmid Extraction Kits (TIANGEN, #D107) to obtain the corresponding plasmid DNAs.
1.2 Co-Transfection of Plasmids into HEK293T Cells and Treatment with Compounds
The HEK293T cells were inoculated into a 96-well plate at a density of 1×10^4/well the day before plasmid transfection. Cell transfection was conducted according to the instructions of the transfection reagent FuGENE® HD (Promega, #E2311). The main steps were as follows: taking one well as an example here, the plasmids pGAL4-THRα-LBD or pGAL4-THRβ-LBD, pG5-Luc, and pRL-TK were added in the proportions of 20 ng, 50 ng, and 5 ng to 10 μL of Opti-MEM™ I medium (Gibco, #11058021) and mixed well; subsequently, 0.25 μL of FuGENE® HD was added, mixed well, and then left at room temperature for 5 min; afterwards, […] was added to the cell wells containing 100 μL of culture medium. After cell co-transfection for 6 h, the compound was diluted in a 3-fold gradient with dimethyl sulfoxide at the highest concentration of 1 μM. The compound was added to the cell culture medium at a total of 10 concentrations for treatment for 24 h. There were a total of two duplicate wells for each concentration. Triiodothyronine (T3) was used as the positive control.
1.3 Dual-Glo Luciferase Assay
After the cells were treated with the compound for 24 h, the cells were assayed according to the instructions of Dual-Glo® Luciferase Assay System (Promega, #E2940). The main steps were as follows: 50 μL of culture medium was aspirated from each well and discarded, and then 50 μL of Dual-Glo® Luciferase reagent was added and oscillated at room temperature for 10 min; 80 μL of lysis reaction solution was measured into a white opaque optiPlate-96-well plate, and the luminescence signal value (Firefly-Luc) of the Firefly luciferase was detected using an MD i3x multi-mode microplate reader; 40 μL of Dual-Glo® Stop & Glo® reagent was then added, and oscillated at room temperature for 10 min; the luminescence signal value (Renilla-Luc) of the Renilla luciferase was then detected using an MD i3x multi-mode microplate reader. The Firefly-Luc/Renilla-Luc ratio was used as the activation activity of the compound against THR, and was normalized against the ratio in the vehicle DMSO group; the dose-response curve was fitted with four parameters using the GraphPad Prism6.0 software, and the EC50 value was calculated.

[2] = target: T2, THRα LBD (His-GST-dLBT-THRα LBD) (Homo sapiens, UniProt P10827); test: THR-FRET (time-resolved fluorescence resonance energy transfer) agonist activity assay, THRα; assay type: biochemical; conditions: 24 h at room temperature
T2 construct: made in house; host or cells: E. coli BL21 (DE3)
T2 sequence (P10827 163-407 isoform P10827-2): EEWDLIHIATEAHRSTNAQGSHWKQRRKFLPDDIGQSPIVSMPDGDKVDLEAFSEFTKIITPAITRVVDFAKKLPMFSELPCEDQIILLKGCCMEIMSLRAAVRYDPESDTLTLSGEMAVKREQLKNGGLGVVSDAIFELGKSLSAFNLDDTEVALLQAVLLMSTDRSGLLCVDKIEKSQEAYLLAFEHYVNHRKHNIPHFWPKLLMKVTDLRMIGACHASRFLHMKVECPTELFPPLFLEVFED
Source text: (§1) Experimental Example 1: Detection of Agonist Activities of Compounds Against THRα/β Based on Time-Resolved Fluorescence Resonance Energy Transfer (THR-FRET)
(§2) 1. Construction of THRα/β Overexpression Vectors
(§3) By visiting NCBI, the THRα/β LBD domain sequences were found. The pET21-His-GST-dLBT-THRα LBD and pET21-His-GST-dLBT-THRβLBD overexpression vectors were constructed by the fusion method, and sequenced to confirm the accuracy of the sequences.
(§4) 2. Prokaryotic Expression of Recombinant Proteins in E. coli
(§5) The THRα LBD and THRβLBD overexpression vectors confirmed by sequencing were transfected into E. coli cells BL21 (DE3), and spread on an ampicillin-resistant agar plate. Monoclones were picked out and amplified in an LB medium, and transferred into 1 L LB at a ratio of 1:100 for large-scale culture. When the OD value was at 0.8 to 1.2, 0.5 mM isopropyl-beta-D-thiogalactopyranoside (IPTG) was added, and induced overnight at 18° C. The bacteria were harvested, disrupted, and purified via the GST column and the molecular sieve to obtain two proteins His-GST-dLBT-THRα LBD and His-GST-dLBT-THRβLBD.
(§6) 3. Preparation of Compounds and Formulation of Reaction System
(§7) The proteins were taken out from a refrigerator at −80° C. The protein s with the GST-tagged THRα/p LBD domain and the Eu-labelled GST antibodies were thawed slowly on ice, and an assay buffer containing a final concentration of 5 mM dithiothreitol (DTT) was formulated.
(§8) 3.1 Preparation of Compounds
(§9) The starting concentration of the compound was 10 μM (in DMSO). The compound (100 μM in DMSO) was subjected to 3-fold isogradient dilution with DMSO to obtain a total of 11 isogradient concentrations. Subsequently, the above compounds at the isogradient concentration were further subjected to 50-fold dilution with an assay buffer containing 5 mM DTT.
(§10) 3.2 Formulation of THR-FRET Reaction System
(§11) The final concentrations of all components were calculated based on a system with a final volume of 20 µL per well. To […] of assay buffer containing 5 mM DTT, the GST-tagged THRα/β proteins, the SRC2 ([…]) polypeptide, XL665 (Cisobio, #610SAXLB), and the Eu-labeled GST antibody were added, and the final concentrations were 2 nM, 200 nM, 0.05 nM, and 7.6 nM respectively to formulate 18 μL of reaction mixture of the proteins, polypeptide, and antibody per well.
(§12) 18 μL of reaction mixture and 2 μL of diluted compound were added into an optiplate-384-well plate, and reacted at room temperature for 24 h.
(§13) The plate was read using an MD i3x multi-mode microplate reader with the excitation and emission wavelengths of 340 nm and 665 nm, respectively. The intensity of light at a wavelength of 616 nm generated by europium excited by 340 nm wavelength light from the MD i3x multi-mode microplate reader was used as the background. According to the different activation degrees of different compounds against THRα and THRβ, the intensity of the emission light at a wavelength of 665 nm generated by exciting XL665 with the exciting light at a wavelength of 616 nm was varied. The intensity ratio between these two light wavelengths (665 nm, 616 nm) was used as the activation activity of the compound against THRα or THRβ, and was normalized against the ratio in the vehicle DMSO group. The dose-response curve was fitted with four parameters using the GraphPad Prism 6.0 software, and the EC50 value was calculated.

[3] = target: T3, THRβ LBD (His-GST-dLBT-THRβLBD) (Homo sapiens, UniProt P10828); test: THR-FRET (time-resolved fluorescence resonance energy transfer) agonist activity assay, THRβ; assay type: biochemical; conditions: for EC50: 24 h at room temperature; for Selectivity (THRα/THRβ): ratio of EC50 THRα/THRβ
T3 construct: made in house; host or cells: E. coli BL21 (DE3)
T3 sequence (P10828 217-461 limits assumed): T1 sequence (P10828 217-461)
Source text: as §1, §2, §3, §4, §5, §6, §7, §8, §9, §10, §11, §12, §13

Compound: O=c1cnn(-c2cc(Cl)c(Cn3ccc(=O)c4ccccc43)c(Cl)c2)c(=O)[nH]1 [Compound 1]
- Selectivity (THRα/THRβ) [1]: † (5 ≥ THRα/β)
- EC50 [2]: 1000 to 10000 nM
- EC50 [3]: 100 to 1000 nM
- Selectivity (THRα/THRβ) [3]: †† (10 > THRα/β > 1)

Compound: O=c1cnn(-c2cc(Br)c(Cn3ccc(=O)c4ccccc43)c(Br)c2)c(=O)[nH]1 [Compound 2]
- Selectivity (THRα/THRβ) [1]: † (5 ≥ THRα/β)
- EC50 [2]: 100 to 1000 nM
- EC50 [3]: < 50 nM
- Selectivity (THRα/THRβ) [3]: †† (10 > THRα/β > 1)

Compound: O=c1cnn(-c2cc(Cl)c(Cn3ccc(=O)c4cc(F)ccc43)c(Cl)c2)c(=O)[nH]1 [Compound 5]
- Selectivity (THRα/THRβ) [1]: † (5 ≥ THRα/β)

Compound: O=c1cnn(-c2cc(Cl)c(Cn3ccc(=O)c4cc(Cl)ccc43)c(Cl)c2)c(=O)[nH]1 [Compound 6]
- Selectivity (THRα/THRβ) [1]: † (5 ≥ THRα/β)

Compound: O=c1cnn(-c2cc(Cl)c(Cn3ccc(=O)c4cc(Br)ccc43)c(Cl)c2)c(=O)[nH]1 [Compound 7]
- Selectivity (THRα/THRβ) [1]: † (5 ≥ THRα/β)

Compound: O=c1cnn(-c2cc(Cl)c(Cn3ccc(=O)c4cc(OC(F)(F)F)ccc43)c(Cl)c2)c(=O)[nH]1 [Compound 8]
- Selectivity (THRα/THRβ) [1]: † (5 ≥ THRα/β)

Compound: O=c1cnn(-c2cc(Cl)c(Cn3ccc(=O)c4ccc(Cl)cc43)c(Cl)c2)c(=O)[nH]1 [Compound 12]
- Selectivity (THRα/THRβ) [1]: † (5 ≥ THRα/β)

Compound: CCOC(=O)c1cn(Cc2c(Cl)cc(-n3ncc(=O)[nH]c3=O)cc2Cl)c2ccccc2c1=O [Compound 21]
- Selectivity (THRα/THRβ) [1]: † (5 ≥ THRα/β)

Compound: COC(=O)c1cc2c(=O)ccn(Cc3c(Cl)cc(-n4ncc(=O)[nH]c4=O)cc3Cl)c2cc1OC [Compound 27]
- Selectivity (THRα/THRβ) [1]: † (5 ≥ THRα/β)

Compound: N#Cc1nn(-c2cc(Cl)c(Cn3ccc(=O)c4ccccc43)c(Cl)c2)c(=O)[nH]c1=O [Compound 31]
- EC50 [2]: 1000 to 10000 nM
- EC50 [3]: 100 to 1000 nM
- Selectivity (THRα/THRβ) [3]: †† (10 > THRα/β > 1)

Compound: C#Cc1nn(-c2cc(Cl)c(Cn3ccc(=O)c4ccccc43)c(Cl)c2)c(=O)[nH]c1=O [Compound 40]
- EC50 [2]: 100 to 1000 nM
- EC50 [3]: 50 to 100 nM
- Selectivity (THRα/THRβ) [3]: †† (10 > THRα/β > 1)

Compound: Cn1nc(-c2cc(Cl)c(Cn3ccc(=O)c4ccccc43)c(Cl)c2)c(=O)[nH]c1=O [Compound 51]
- Selectivity (THRα/THRβ) [1]: † (5 ≥ THRα/β)

Compound: O=c1[nH]c(COc2cc(Cl)c(Cn3ccc(=O)c4ccccc43)c(Cl)c2)no1 [Compound 58]
- EC50 [2]: 100 to 1000 nM
- EC50 [3]: 100 to 1000 nM
- Selectivity (THRα/THRβ) [3]: †† (10 > THRα/β > 1)

Compound: O=c1ccn(Cc2c(Cl)cc(OCc3nnn[nH]3)cc2Cl)c2ccccc12 [Compound 59]
- EC50 [2]: 100 to 1000 nM
- EC50 [3]: 100 to 1000 nM
- Selectivity (THRα/THRβ) [3]: †† (10 > THRα/β > 1)

Compound: O=C(O)CNc1cc(Cl)c(Cn2ccc(=O)c3ccccc32)c(Cl)c1 [Compound 60]
- EC50 [2]: 100 to 1000 nM
- EC50 [3]: 100 to 1000 nM
- Selectivity (THRα/THRβ) [3]: †† (10 > THRα/β > 1)

Compound: O=C(O)CC(=O)Nc1cc(Cl)c(Cn2ccc(=O)c3ccccc32)c(Cl)c1 [Compound 61]
- EC50 [2]: 1000 to 10000 nM
- EC50 [3]: 100 to 1000 nM
- Selectivity (THRα/THRβ) [3]: †† (10 > THRα/β > 1)

Compound: O=C(O)C(=O)Nc1cc(Cl)c(Cn2ccc(=O)c3ccccc32)c(Cl)c1 [Compound 62]
- EC50 [2]: 100 to 1000 nM
- EC50 [3]: 50 to 100 nM
- Selectivity (THRα/THRβ) [3]: †† (10 > THRα/β > 1)

Compound: O=c1[nH]nc(CNc2cc(Cl)c(Cn3ccc(=O)c4ccccc43)c(Cl)c2)o1 [Compound 63]
- EC50 [2]: 1000 to 10000 nM
- EC50 [3]: 100 to 1000 nM
- Selectivity (THRα/THRβ) [3]: †† (10 > THRα/β > 1)

Compound: O=c1[nH]c(CNc2cc(Cl)c(Cn3ccc(=O)c4ccccc43)c(Cl)c2)no1 [Compound 64]
- EC50 [2]: 100 to 1000 nM
- EC50 [3]: 50 to 100 nM
- Selectivity (THRα/THRβ) [3]: †† (10 > THRα/β > 1)

Compound: O=c1ccn(Cc2c(Cl)cc(NCc3nnn[nH]3)cc2Cl)c2ccccc12 [Compound 65]
- EC50 [2]: 100 to 1000 nM
- EC50 [3]: < 50 nM
- Selectivity (THRα/THRβ) [3]: ††† (THRα/β ≥ 10)

Compound: O=C(Nc1cc(Cl)c(Cn2ccc(=O)c3ccccc32)c(Cl)c1)c1noc(=O)[nH]1 [Compound 66]
- EC50 [2]: 1000 to 10000 nM
- EC50 [3]: 100 to 1000 nM
- Selectivity (THRα/THRβ) [3]: ††† (THRα/β ≥ 10)
